According to patent US20070031520A1, “Method of using ajoene as alcohol dehydrogenase inhibitor, composition for removing hangover comprising ajoene and method of preparing the same” (priority 2005, published 2007):

Test system: human ADH
Test: cloned human ADH assay (NADH absorbance at 340 nm)
Type: biochemical
Conditions: for ADH inhibitory activity (%): 0.1 M glycine buffer pH 10, 2.4 mM NAD+, 33 mM ethanol
Method: ADH inhibitory activity of ajoene obtained in Example 1 was examined by means of a cloned human ADH assay wherein human ADH is treated with ajoene at different concentrations, and the results are shown in Table 1 below. Here, the ADH assay employed 0.1 M glycine buffer (pH 10) as a reaction buffer and 2.4 mM NAD^+ and 33 mM ethanol in a subtrate. ADH inhibitory activity was determined by measuring the absorbance of NADH at 340 nm using a microplate reader.

C=CCSSC=CC[S+]([O-])CC=C (stereo not shown) [ajoene, 4,5,9-trithiadodeca-1,6,11-triene-9-oxide]
ADH inhibitory activity (%) (ajoene 0.1 μg/ml): 0% | ADH inhibitory activity (%) (ajoene 0.9 μg/ml): 50% | ADH inhibitory activity (%) (ajoene 1 μg/ml): 60% | ADH inhibitory activity (%) (ajoene 10 μg/ml): 85% | ADH inhibitory activity (%) (ajoene 50 μg/ml): 100% | ADH inhibitory activity (%) (ajoene 100 μg/ml): 100% | inhibitory concentration of 50% (IC50) on ADH activity (cloned human ADH, from Table 1): 0.9 µg/mL
